Reference: patent US10557118B2, “Compositions and methods for prevention or treatment of neoplastic disease in a mammalian subject” (The Government of the USA, as represented by the Secretary, …, priority 2006, dated 2020)

Tests used:
[1] = system: HLA A-11; experiment: Binding of epitope to HLA A-11; set-up: species or system human; conditions: compared with the other epitopes
[2] = system: RCC reactive SAUJ T-cell clone; experiment: ELISA of IFN-gamma production by RCC reactive CTL co-cultured with peptide-pulsed COS7-A11 cells; type: cell-based, human
Procedure: COS7-A11 cells were pulsed with varying concentrations of each peptide then screened for their ability to induce IFN-gamma production by RCC reactive CTL. The 10 mer Pep-A104-K133 (ATFLGSLTWK) (SEQ ID NO: 1) induced dose dependent IFN-gamma production first evident in the 1 nM concentration range consistent with this peptide being the antigenic HLA-A11 restricted antigen recognized by the RCC reactive SAUJ T-cell clone.
Cultured T-cell lines or T cell clones were added to target cells in round-bottom 96-well plates. After 24 hours co culture at 37° C., 50 μL of supernatants was collected to measure IFN-g or GM-CSF secretion by ELISA (ENDOGEN, Woburn, Mass.) in duplicate assays. The concentration of reagents and the ELISA procedure recommended by ENDOGEN was followed without deviation. Absorbance was detected at 450 nm using an ELISA reader (VICTOR3 Multilabel counter; Perkin Elmer, Wellesley, Mass.) and data were calculated based on the standard curve generated from commercial recombinant human IFN-g or GM-CSF standards (ENDOGEN).
A total of 8 peptides (three 9-mers and five 10-mers) from the common sequence of CT-RCC 8 and CT-RCC 9 were synthesized and purchased from Genemed Synthesis, Inc. The identity and purity of each of the peptides were confirmed by mass spectrometer and high-performance liquid chromatography analysis. […]

Sequence: ATFLGSLTWK [Pep-A104-K133, HLA-A11-restricted 10-mer peptide from the common region of CT-RCC 8 and CT-RCC 9]
- level of binding the HLA A-11 [1]: highest level of binding
- concentration range at which dose dependent IFN-gamma production is first evident ([2]; COS7-A11 cells pulsed with varying peptide concentrations (0.1 to 10000 nM), SAUJ-CTL clone BZ-4): ~1 nM
- level of IFN-γ secretion by human T cells ([2]; compared with the other epitopes): highest level of IFN-γ secretion
